Measurements: BigSolDB 2.1

CCCSc1nc(N[C@@H]2C[C@H]2c2ccc(F)c(F)c2)c2nnn([C@@H]3C[C@H](OCCO)[C@@H](O)[C@H]3O)c2n1
solubility (mole fraction)
Conditions | 273.15 K | 278.15 K | 283.15 K | 288.15 K | 293.15 K | 298.15 K | 303.15 K | 308.15 K | 313.15 K
in 2-butanone | 0.0218 | 0.0269 | 0.0321 | 0.038 | 0.0439 | 0.051 | 0.0584 | 0.0673 | 0.0776
in acetonitrile | 0.000876 | 0.00115 | 0.00144 | 0.00179 | 0.00217 | 0.0026 | 0.00309 | 0.00359 | 0.00416
in cyclohexanone | 0.0265 | 0.0316 | 0.0374 | 0.0437 | 0.051 | 0.0578 | 0.0661 | 0.0744 | 0.0832
in ethanol | 0.00315 | 0.0041 | 0.00503 | 0.00625 | 0.00747 | 0.00881 | 0.0105 | 0.0125 | 0.0149
in ethyl acetate | 0.00409 | 0.00504 | 0.00608 | 0.00716 | 0.00855 | 0.0101 | 0.0118 | 0.0135 | 0.0157
in isobutanol | 0.00148 | 0.00176 | 0.00209 | 0.00243 | 0.00284 | 0.00324 | 0.00373 | 0.00425 | 0.00484
in isopropanol | 0.00251 | 0.00286 | 0.00325 | 0.00364 | 0.00404 | 0.00446 | 0.00496 | 0.00547 | 0.00599
in methanol | 0.00494 | 0.00615 | 0.00741 | 0.0092 | 0.0114 | 0.014 | 0.0169 | 0.0203 | 0.0239
in n-butanol | 0.00289 | 0.00363 | 0.0045 | 0.00542 | 0.00656 | 0.00768 | 0.00895 | 0.0103 | 0.0118
in n-octanol | 0.0021 | 0.00233 | 0.00263 | 0.00292 | 0.00327 | 0.00367 | 0.00406 | 0.00456 | 0.0051
in n-propanol | 0.00268 | 0.00327 | 0.00389 | 0.00462 | 0.00535 | 0.00612 | 0.00692 | 0.00776 | 0.00872
in toluene | 3e-05 | 3.8e-05 | 4.9e-05 | 6.3e-05 | 8e-05 | 0.000102 | 0.00013 | 0.00016 | 0.000196
